# Assay results reported in patent publication US8455688B2, “HDAC inhibitors” (Lixte Biotechnology, Inc., priority 2007, dated 2013).
# Read-outs that look alike come from different tables or passages of the source.
# Tests used:
# A. fumigatus = assay: Broth dilution antifungal susceptibility testing, A. fumigatus; type: cell-based, Aspergillus fumigatus; conditions: Aspergillus fumigatus, 80% inhibition, read-out: minimum inhibitory concentration (MIC)
# Procedure: (§1) A total of 23 isolates were tested to include 3 Candida albicans, 3 Candida glabrata, 3 Cryptococcus neoformans, 3 Aspergillus fumigatus, 3 Rhizopus oryzae, 3, Fusarium solani, 3 Pseudallescheria boydii, and 2 […]. All isolates were clinical isolates submitted to the Fungus Testing Laboratory for evaluation. Antifungal susceptibility testing was accomplished according to the methods outlined in the National Committee for Clinical Laboratory Standards, M-27A2, Reference Method for Broth Dilution Antifungal Susceptibility Testing of Yeasts; Approved Standard, and M38-A “Reference Method for Broth Dilution Antifungal Susceptibility Testing of Conidium-Forming Filamentous Fungi; Approved Standard”. This includes testing in RPMI-1640 with glutamine and without bicarbonate, an inoculum size of 0.5-2.5×10^3 for yeasts or […] for moulds, and incubation at 35° C. for 24 and 48 hours. […] Drug concentrations were 0.125-64 μg/ml. A 10 mg portion of each powder was weighed out and added to 1 ml of 100% DMSO for compound 205. The resulting concentration of […] was diluted to a working concentration of 6400 μg/ml for compound 205 in 100% DMSO. All subsequent dilutions were also made using the respective diluents. Final testing concentrations ranged from 0.125-64 μg/ml. The NCCLS recommended medium RPMI-1640 (Hardy Diagnostics, Santa Monica, Calif.) was utilized as the test medium. All isolates in this study were clinical isolates received in the Fungus Testing Laboratory for standard antifungal susceptibility testing and/or identification. Isolates, which were not sent for identification, were confirmed to assure testing integrity. A total of 23 were tested to include 3 Candida albicans, 3 Candida glabrata, 3 Cryptococcus neoformans, 3 Aspergillus fumigatus, 3 Rhizopus oryzae, 3, Fusarium solani, 3 Pseudallescheria boydii, and 2 […]. Minimum inhibitory concentrations (MIC) were determined at the first 24-hour interval where growth could be determined in the drug-free control tube.
# R. arrhizus = assay: Broth dilution antifungal susceptibility testing, R. arrhizus; type: cell-based, Rhizopus oryzae; conditions: Rhizopus arrhizus, 80% inhibition, read-out: minimum inhibitory concentration (MIC)
# Procedure: as §1
# C. glabrata = assay: Broth dilution antifungal susceptibility testing, C. glabrata; type: cell-based, Candida glabrata; conditions: Nakaseomyces glabratus, 50% reduction in turbidity, read-out: minimum inhibitory concentration (MIC)
# Procedure: as §1
# F. solani = assay: Broth dilution antifungal susceptibility testing, F. solani; type: cell-based; conditions: Fusarium solani, 80% inhibition, read-out: minimum inhibitory concentration (MIC)
# Procedure: as §1
# C. neoformans = assay: Broth dilution antifungal susceptibility testing, C. neoformans; type: cell-based; conditions: Cryptococcus neoformans, 50% reduction in turbidity, read-out: minimum inhibitory concentration (MIC)
# Procedure: as §1
# C. albicans = assay: Broth dilution antifungal susceptibility testing, C. albicans; type: cell-based, Candida albicans; conditions: Candida albicans, 50% reduction in turbidity, read-out: minimum inhibitory concentration (MIC)
# Procedure: as §1
# S. apiospermum = assay: Broth dilution antifungal susceptibility testing, S. apiospermum; type: cell-based, Pseudallescheria boydii; conditions: Scedosporium apiospermum, 80% inhibition, read-out: minimum inhibitory concentration (MIC)
# Procedure: as §1
# T. rubrum = assay: Broth dilution antifungal susceptibility testing, T. rubrum; type: cell-based, Trichophyton rubrum; conditions: Trichophyton rubrum, 80% inhibition, read-out: minimum inhibitory concentration (MIC)
# Procedure: as §1
# CP Control = assay: Broth dilution antifungal susceptibility testing, CP Control; type: cell-based; conditions: read-out: minimum inhibitory concentration (MIC)
# Procedure: as §1
# [1] = 24 h, isolate 06-4126, 24 hours
# [2] = 24 h, isolate 07-2039, 24 hours
# [3] = 48 h, isolate 06-4126, 48 hours
# [4] = 48 h, isolate 07-2039, 48 hours
# [5] = 24 h, isolate 07-1870, 24 hours
# [6] = 24 h, isolate 07-2044, 24 hours
# [7] = 24 h, isolate 07-2078, 24 hours
# [8] = 48 h, isolate 07-1870, 48 hours
# [9] = 48 h, isolate 07-2044, 48 hours
# [10] = 48 h, isolate 07-2078, 48 hours
# [11] = 24 h, isolate 07-2964, 24 hours
# [12] = 24 h, isolate 07-2965, 24 hours
# [13] = 24 h, isolate 07-3013, 24 hours
# [14] = 48 h, isolate 07-2964, 48 hours
# [15] = 48 h, isolate 07-2965, 48 hours
# [16] = 48 h, isolate 07-3013, 48 hours
# [17] = 24 h, isolate 07-1399, 24 hours
# [18] = 24 h, isolate 07-1755, 24 hours
# [19] = 24 h, isolate 07-1867, 24 hours
# [20] = 48 h, isolate 07-1399, 48 hours
# [21] = 48 h, isolate 07-1755, 48 hours
# [22] = 48 h, isolate 07-1867, 48 hours
# [23] = 24 h, isolate 07-2665, 24 hours
# [24] = 24 h, isolate 07-2737, 24 hours
# [25] = 24 h, isolate 07-2829, 24 hours
# [26] = 48 h, isolate 07-2665, 48 hours
# [27] = 48 h, isolate 07-2737, 48 hours
# [28] = 48 h, isolate 07-2829, 48 hours
# [29] = 24 h, isolate 07-3006, 24 hours
# [30] = 24 h, isolate 07-3011, 24 hours
# [31] = 24 h, isolate 07-3012, 24 hours
# [32] = 48 h, isolate 07-3006, 48 hours
# [33] = 48 h, isolate 07-3011, 48 hours
# [34] = 48 h, isolate 07-3012, 48 hours
# [35] = 24 h, isolate 07-1333, 24 hours
# [36] = 24 h, isolate 07-1502, 24 hours
# [37] = 24 h, isolate 07-1601, 24 hours
# [38] = 48 h, isolate 07-1333, 48 hours
# [39] = 48 h, isolate 07-1502, 48 hours
# [40] = 48 h, isolate 07-1601, 48 hours
# [41] = 24 h, isolate 07-1743, 24 hours
# [42] = 24 h, isolate 07-2055, 24 hours
# [43] = 48 h, isolate 07-1743, 48 hours
# [44] = 48 h, isolate 07-2055, 48 hours
compound,measurement,setting,value
"O=C(NCCCCCCNC(=O)c1ccccc1S)c1ccccc1S [Compound 204, Bis-1,6-(2-mercaptobenzoylamino)hexane]",MIC,"A. fumigatus; 24 h, isolate 05-388, 24 hours",2 µg/mL
same,MIC,A. fumigatus; [1],1 µg/mL
same,MIC,A. fumigatus; [2],1 µg/mL
same,MIC,"A. fumigatus; 48 h, isolate 05-388, 48 hours",> 64 µg/mL
same,MIC,A. fumigatus; [3],> 64 µg/mL
same,MIC,A. fumigatus; [4],> 64 µg/mL
same,MIC,R. arrhizus; [5],> 64 µg/mL
same,MIC,R. arrhizus; [6],> 64 µg/mL
same,MIC,R. arrhizus; [7],> 64 µg/mL
same,MIC,R. arrhizus; [8],> 64 µg/mL
same,MIC,R. arrhizus; [9],> 64 µg/mL
same,MIC,R. arrhizus; [10],> 64 µg/mL
same,MIC,C. glabrata; [11],> 64 µg/mL
same,MIC,C. glabrata; [12],> 64 µg/mL
same,MIC,C. glabrata; [13],> 64 µg/mL
same,MIC,C. glabrata; [14],> 64 µg/mL
same,MIC,C. glabrata; [15],> 64 µg/mL
same,MIC,C. glabrata; [16],> 64 µg/mL
same,MIC,F. solani; [17],> 64 µg/mL
same,MIC,F. solani; [18],> 64 µg/mL
same,MIC,F. solani; [19],> 64 µg/mL
same,MIC,F. solani; [20],> 64 µg/mL
same,MIC,F. solani; [21],> 64 µg/mL
same,MIC,F. solani; [22],> 64 µg/mL
same,MIC,C. neoformans; [23],4 µg/mL
same,MIC,C. neoformans; [24],> 64 µg/mL
same,MIC,C. neoformans; [25],> 64 µg/mL
same,MIC,C. neoformans; [26],4 µg/mL
same,MIC,C. neoformans; [27],> 64 µg/mL
same,MIC,C. neoformans; [28],> 64 µg/mL
same,MIC,C. albicans; [29],> 64 µg/mL
same,MIC,C. albicans; [30],> 64 µg/mL
same,MIC,C. albicans; [31],> 64 µg/mL
same,MIC,C. albicans; [32],> 64 µg/mL
same,MIC,C. albicans; [33],> 64 µg/mL
same,MIC,C. albicans; [34],> 64 µg/mL
same,MIC,S. apiospermum; [35],0.5 µg/mL
same,MIC,S. apiospermum; [36],2 µg/mL
same,MIC,S. apiospermum; [37],< 0.125 µg/mL
same,MIC,S. apiospermum; [38],1 µg/mL
same,MIC,S. apiospermum; [39],2 µg/mL
same,MIC,S. apiospermum; [40],0.5 µg/mL
same,MIC,T. rubrum; [41],1 µg/mL
same,MIC,T. rubrum; [42],1 µg/mL
same,MIC,T. rubrum; [43],1 µg/mL
same,MIC,T. rubrum; [44],1 µg/mL
same,MIC,CP Control; 24 hours,8 µg/mL
same,MIC,CP Control; 48 hours,> 64 µg/mL
"Nc1ccc(NC(=O)CCCCCNC(=O)c2ccccc2S)cc1 [Compound 209, 2-Mercapto-N-[5-(4-Aminophenylcarbamoyl)-pentyl]benzamide]",MIC,"A. fumigatus; 24 h, isolate 05-388, 24 hours",16 µg/mL
same,MIC,A. fumigatus; [1],16 µg/mL
same,MIC,A. fumigatus; [2],32 µg/mL
same,MIC,"A. fumigatus; 48 h, isolate 05-388, 48 hours",> 64 µg/mL
same,MIC,A. fumigatus; [3],> 64 µg/mL
same,MIC,A. fumigatus; [4],> 64 µg/mL
same,MIC,R. arrhizus; [5],2 µg/mL
same,MIC,R. arrhizus; [6],2 µg/mL
same,MIC,R. arrhizus; [7],> 64 µg/mL
same,MIC,R. arrhizus; [8],> 64 µg/mL
same,MIC,R. arrhizus; [9],> 64 µg/mL
same,MIC,R. arrhizus; [10],> 64 µg/mL
same,MIC,C. glabrata; [11],2 µg/mL
same,MIC,C. glabrata; [12],2 µg/mL
same,MIC,C. glabrata; [13],2 µg/mL
same,MIC,C. glabrata; [14],32 µg/mL
same,MIC,C. glabrata; [15],32 µg/mL
same,MIC,C. glabrata; [16],32 µg/mL
same,MIC,F. solani; [17],> 64 µg/mL
same,MIC,F. solani; [18],> 64 µg/mL
same,MIC,F. solani; [19],> 64 µg/mL
same,MIC,F. solani; [20],> 64 µg/mL
same,MIC,F. solani; [21],> 64 µg/mL
same,MIC,F. solani; [22],> 64 µg/mL
same,MIC,C. neoformans; [23],32 µg/mL
same,MIC,C. neoformans; [24],8 µg/mL
same,MIC,C. neoformans; [25],16 µg/mL
same,MIC,C. neoformans; [26],32 µg/mL
same,MIC,C. neoformans; [27],16 µg/mL
same,MIC,C. neoformans; [28],16 µg/mL
same,MIC,C. albicans; [29],2 µg/mL
same,MIC,C. albicans; [30],2 µg/mL
same,MIC,C. albicans; [31],2 µg/mL
same,MIC,C. albicans; [32],32 µg/mL
same,MIC,C. albicans; [33],32 µg/mL
same,MIC,C. albicans; [34],32 µg/mL
same,MIC,S. apiospermum; [35],64 µg/mL
same,MIC,S. apiospermum; [36],32 µg/mL
same,MIC,S. apiospermum; [37],8 µg/mL
same,MIC,S. apiospermum; [38],> 64 µg/mL
same,MIC,S. apiospermum; [39],> 64 µg/mL
same,MIC,S. apiospermum; [40],> 64 µg/mL
same,MIC,T. rubrum; [41],8 µg/mL
same,MIC,T. rubrum; [42],8 µg/mL
same,MIC,T. rubrum; [43],8 µg/mL
same,MIC,T. rubrum; [44],8 µg/mL
